From patent US10660959B2, “Formulations of a PI3K/mTOR-inhibitor for intravenous administration” (Pfizer Inc., priority 2014, dated 2020)
Where “and” joins values, the source holds several entries; their conditions need not be identical. Equal entries are not always repeated.

How the values were obtained:
Type in all cases: physicochemical
[1] = pH measurement of aqueous formulation samples; conditions: for pH after dilution: roller bed overnight; for pH Check after 6 Days / pH Check after 48 hours: Investigation 5; for pH: Investigation 6, 15 hours
Procedure: At the end of the 5 day period the pH of each sample was measured and a visual observation of each sample was made using a light box as described in European Pharmacopoeia Method 2.9.20 (above), inspecting the samples against a black and a white background. The sample was also tested by illumination using a narrow (Tyndall) beam light source and then visually inspected from a direction perpendicular to the light beam in order to identify undissolved solid particles.
At the end of the specified rolling period the pH of each sample was measured and a visual observation of each sample was made using a light box as described in European Pharmacopoeia Method 2.9.20 (above), inspecting the samples against a black and a white background. The sample was also tested by illumination using a narrow (Tyndall) beam light source and then visually inspected from a direction perpendicular to the light beam in order to identify undissolved solid particles.
These samples were visually assessed made using a light box as described in European Pharmacopoeia Method 2.9.20 (above), inspecting the samples against a black and a white background. The sample was also tested by illumination using a narrow (Tyndall) beam light source and then visually inspected from a direction perpendicular to the light beam in order to identify undissolved solid particles. The pH was also measured.
These samples were visually assessed using a light box as described in European Pharmacopoeia Method 2.9.20 (above), inspecting the samples against a black and a white background. The sample was also tested by illumination using a narrow (Tyndall) beam light source and then visually inspected from a direction perpendicular to the light beam in order to identify undissolved solid particles. The pH was also measured.
The diluted samples were placed on a roller bed overnight in order to reach equilibrium. The pH was also measured.
These samples were visually assessed using a light box as described in European Pharmacopoeia method 2.9.20 (above), inspecting the samples against a black and a white background. The sample was also tested by illumination using a narrow (Tyndall) beam light source and then visually inspected from a direction perpendicular to the light beam in order to identify undissolved solid particles. […] The pH was also measured.

[2] = Chemical and physical stability of crystalline free base on storage; conditions: crystalline form, 25° C. and 60% Relative Humidity
[3] = Visual observation of solution clarity (light box per European Pharmacopoeia Method 2.9.20, black and white background, Tyndall beam)
Description: A clear solution is defined as a visually clear solution essentially free from any visible particulates that can be observed on a visual inspection. Generally, if any particulate matter is observed, the formulation is not suitable for intravenous administration and should not be utilised as occlusion of blood vessels may occur. Accordingly, in view of the qualitative nature of the visual test, the term “essentially free from any visible particulates” is usually applied when no visible particulate matter is observed.
The visual inspection can be conducted in accordance with the method defined in European Pharmacopoeia Method 2.9.20 entitled “Particulate contamination: visible particles”. […]
By this method the solution in the vial was visually inspected in a Verivide DCAC60 (trade mark) light cabinet using a light meter reading of 3250 lux against a matt black panel and a white panel.
At the end of the 5 day period the pH of each sample was measured and a visual observation of each sample was made using a light box as described in European Pharmacopoeia Method 2.9.20 (above), inspecting the samples against a black and a white background. […]
These samples were visually assessed made using a light box as described in European Pharmacopoeia Method 2.9.20 (above), inspecting the samples against a black and a white background. […] The pH was also measured. […]

[4] = Water solubility of free base; conditions: for aqueous solution formulation at therapeutic dosage levels
[5] = Investigation 4, 3 mg/mL with 6.8 mole equivalents orthophosphoric acid (33.3 mM), roller bed room temperature ca. 19 hours, N = 1-3

With `CN(C)C1CCN(C(=O)c2ccc(NC(=O)Nc3ccc(-c4nc(N5CCOCC5)nc(N5CCOCC5)n4)cc3)cc2)CC1` [1-(4-{[4-(Dimethylamino)piperidin-1-yl]carbonyl}phenyl)-3-[4-(4,6-dimorpholin-4-yl-1,3,5-triazin-2-yl)phenyl]urea] the “Final pH” value [1, 5] was 2.15 and 2.17, the pH after dilution ([1]; Investigation 4, orthophosphoric acid samples diluted to 0.05 mg/mL) was 3.47 and 3.48 and 3.49 and the pH after dilution ([1]; Investigation 4, orthophosphoric acid samples diluted to 0.1 mg/mL) was 3.21 and 3.20. The pH after dilution ([1]; Investigation 4, orthophosphoric acid samples diluted to 0.5 mg/mL) was 2.64 and 2.63, the “pH Check after 6 Days” value ([1]; 3 mg/mL in 33.3 mM acetic acid) was 3.99 and 3.95 and 3.96 and the “pH Check after 48 hours” value ([1]; 3 mg/mL in 33.3 mM acetic acid) was 3.89 and 3.90. The “pH Check after 6 Days” value ([1]; 4 mg/mL in 33.3 mM acetic acid) was 4.03 and 4.04, the “pH Check after 48 hours” value ([1]; 4 mg/mL in 33.3 mM acetic acid) was 3.94 and 3.95 and the “pH Check after 6 Days” value ([1]; 5 mg/mL in 33.3 mM acetic acid) was 4.18 and 4.19. The “pH Check after 48 hours” value ([1]; 5 mg/mL in 33.3 mM acetic acid) was 3.99 and 4.00, the pH ([1]; 3 mg/mL, ca. 6.8 mole equivalents orthophosphoric acid) was 2.02 and 2.03 and 2.05 and the pH ([1]; 3.5 mg/mL, ca. 5.9 mole equivalents orthophosphoric acid) was 2.09 and 2.07. For the same compound, the “chemically and physically stable (duration)” value [2] was “up to 3 years”, the “Visual assessment” value [3, 5] was “Clear” and the Visual assessment ([3]; Investigation 5, 3, 4 and 5 mg/mL in 33.3 mM acetic acid buffer pH 3.35, roller bed room temperature, 24 hour, 48 hour, 72 hour and 6 day periods) was “does not produce a clear solution”. The water solubility [4] was “insufficiently water soluble”.
